Patent US20150246902A1, “SUBSTITUED BENZOFURAN COMPOUNDS AND METHODS OF USE THEREOF FOR THE TREATMENT OF VIRAL DISEASES” (priority 2011, published 2015)

Tests used:
HCV replicon genotype 1a = assay: microbe, parasite or virus in culture; type: cell-based; details: Hepatitis C virus, 96 h, HCV genotype 1a replicon cells, 96 hours incubation, NS3/4A ELISA readout
HCV replicon genotype 1b = assay: microbe, parasite or virus in culture; type: cell-based; details: Hepatitis C virus, 96 h, HCV genotype 1b replicon cells, 96 hours incubation, NS3/4A ELISA readout

CNC(=O)c1c(-c2ccc(F)cc2)oc2cc(N(C)S(C)(=O)=O)c(-c3ccc4ncn(-c5cccc(F)c5)c4c3)cc12 [Compound 14]
IC50 (HCV replicon genotype 1a): 2.7 nM | IC50 (HCV replicon genotype 1b): 1.2 nM

CNC(=O)c1c(-c2ccc(F)cc2)oc2cc(N(C)S(C)(=O)=O)c(-c3ncc4ncn(-c5ccc(C(F)(F)F)cc5)c4n3)cc12 [Compound 41]
IC50 (HCV replicon genotype 1a): 119 nM | IC50 (HCV replicon genotype 1b): 6.7 nM

CNC(=O)c1c(-c2ccc(F)cc2)oc2cc(N(C)S(C)(=O)=O)c(-c3ccc4ncc(-c5ccc(F)cc5)n4n3)cc12 [Compound 95]
IC50 (HCV replicon genotype 1a): 85.9 nM | IC50 (HCV replicon genotype 1b): 44 nM

CNC(=O)c1c(-c2ccc(F)cc2)oc2cc(N(C)S(C)(=O)=O)c(-c3ccc4ncn(-c5ccccc5F)c4c3)cc12 [Compound 3]
IC50 (HCV replicon genotype 1a): 68 nM | IC50 (HCV replicon genotype 1b): 5.8 nM

CNC(=O)c1c(-c2ccc(F)cc2)oc2cc(N(C)S(C)(=O)=O)c(-c3ccc4c(ccn4-c4ccc(F)cc4)c3)cc12 [Compound 54]
IC50 (HCV replicon genotype 1a): 109 nM | IC50 (HCV replicon genotype 1b): 14.1 nM

CNC(=O)c1c(-c2ccc(F)cc2)oc2cc(N(C)S(C)(=O)=O)c(-c3ccc4[nH]nc(-c5ccc(Cl)cc5)c4c3)cc12 [Compound 76]
IC50 (HCV replicon genotype 1a): 6.8 nM | IC50 (HCV replicon genotype 1b): 5.8 nM

CNC(=O)c1c(-c2ccc(F)cc2)oc2cc(N(C)S(C)(=O)=O)c(-c3ccc4c(ccn4-c4cccnc4)c3)cc12 [Compound 57]
IC50 (HCV replicon genotype 1a): 13.9 nM | IC50 (HCV replicon genotype 1b): 3 nM

CNC(=O)c1c(-c2ccc(F)cc2)oc2cc(N(C)S(C)(=O)=O)c(-c3cc(F)c4nc(C)n(-c5ccc(F)c(C#N)c5)c4c3)cc12 [Compound 32]
IC50 (HCV replicon genotype 1a): 5.3 nM | IC50 (HCV replicon genotype 1b): 3.1 nM

CNC(=O)c1c(-c2ccc(F)cc2)oc2cc(N(C)S(C)(=O)=O)c(-c3ccc4ncn(-c5ccc(F)cc5)c4n3)cc12 [Compound 44]
IC50 (HCV replicon genotype 1a): 56.5 nM | IC50 (HCV replicon genotype 1b): 7.7 nM

CNC(=O)c1c(-c2ccc(F)cc2)oc2cc(N(C)S(C)(=O)=O)c(-c3ccc4[nH]nc(-c5ccc(C(F)(F)F)cc5)c4c3)cc12 [Compound 75]
IC50 (HCV replicon genotype 1a): 8 nM | IC50 (HCV replicon genotype 1b): 7.3 nM

CNC(=O)c1c(-c2ccc(F)cc2)oc2cc(N(C)S(C)(=O)=O)c(-c3cccc4nc(-c5ccc(F)cc5)oc34)cc12 [Compound 86]
IC50 (HCV replicon genotype 1a): 714 nM | IC50 (HCV replicon genotype 1b): 304 nM

CNC(=O)c1c(-c2ccc(F)cc2)oc2cc(N(C)S(C)(=O)=O)c(-c3ccc4[nH]cc(-c5ccccc5)c4c3)cc12 [Compound 70, 2-(4-fluorophenyl)-N-methyl-6-(N-methylmethylsulfonamido)-5-(3-phenyl-1H-indol-5-yl)benzofuran-3-carboxamide]
IC50 (HCV replicon genotype 1a): 17.8 nM | IC50 (HCV replicon genotype 1b): 11.3 nM

CNC(=O)c1c(-c2ccc(F)cc2)oc2cc(N(C)S(C)(=O)=O)c(-c3cc(F)c4nc(C)n(-c5ccc(F)c(C(N)=O)c5)c4c3)cc12 [Compound 109, 5-(1-(3-carbamoyl-4-fluorophenyl)-4-fluoro-2-methyl-1H-benzo[d]imidazol-6-yl)-2-(4-fluorophenyl)-N-methyl-6-(N-methylmethylsulfonamido)benzofuran-3-carboxamide]
IC50 (HCV replicon genotype 1a): 110 nM | IC50 (HCV replicon genotype 1b): 21.1 nM

CNC(=O)c1c(-c2ccc(F)cc2)oc2cc(N(C)S(C)(=O)=O)c(-c3cnc4ccn(-c5ccc(C#N)cc5)c4c3)cc12 [Compound 49]
IC50 (HCV replicon genotype 1a): 8.3 nM | IC50 (HCV replicon genotype 1b): 3.3 nM

CNC(=O)c1c(-c2ccc(F)cc2)oc2cc(N(C)S(C)(=O)=O)c(-c3ccc4ncn(-c5cccc(OC)c5)c4c3)cc12 [Compound 4]
IC50 (HCV replicon genotype 1a): 26.5 nM | IC50 (HCV replicon genotype 1b): 2.5 nM

CNC(=O)c1c(-c2ccc(F)cc2)oc2cc(N(C)S(C)(=O)=O)c(-c3ccn4cc(-c5ccccc5)nc4c3)cc12 [Compound 89]
IC50 (HCV replicon genotype 1a): 7 nM | IC50 (HCV replicon genotype 1b): 2.7 nM

CNC(=O)c1c(-c2ccc(F)cc2)oc2cc(N(C)S(C)(=O)=O)c(-c3ccc4ncn(-c5ccc(C(F)(F)F)cc5)c4c3)cc12 [Compound 7]
IC50 (HCV replicon genotype 1a): 2.6 nM | IC50 (HCV replicon genotype 1b): 2.2 nM

CNC(=O)c1c(-c2ccc(F)cc2)oc2cc(N(C)S(C)(=O)=O)c(-c3ccc4ncn(-c5ccc(OC(F)(F)F)cc5)c4c3)cc12 [Compound 17]
IC50 (HCV replicon genotype 1a): 37.6 nM | IC50 (HCV replicon genotype 1b): 12.8 nM

CNC(=O)c1c(-c2ccc(F)cc2)oc2cc(N(C)S(C)(=O)=O)c(-c3ccc4ccn(CCO)c4c3)cc12 [Compound 69]
IC50 (HCV replicon genotype 1a): 147 nM | IC50 (HCV replicon genotype 1b): 17.4 nM

CNC(=O)c1c(-c2ccc(F)cc2)oc2cc(N(C)S(C)(=O)=O)c(-c3ncc4ncn(-c5ccc(F)cc5)c4n3)cc12 [Compound 40]
IC50 (HCV replicon genotype 1a): 338 nM | IC50 (HCV replicon genotype 1b): 20.2 nM
